Where a name gives a salt, the structure may show the parent alone.
Assays:
Male NMRI mice = experiment: phenylquinone-induced writhing in mice (analgesic efficacy); type: in vivo; conditions: 10 mg/kg i.v., phenylquinone i.p. 10 minutes after compound, writhing counted 5-20 minutes after phenylquinone
Protocol: The investigation into analgesic efficacy was performed by phenylquinone-induced writhing in mice (modified after: I. C. Hendershot, J. Forsaith, J. Pharmacol. Exp. There. 125, 237-240 (1959)). The corresponding literature description is hereby introduced as a reference and is deemed to be part of the disclosure.
Male NMRI mice weighing from 25 to 30 g were used for this purpose. Groups of 10 animals per substance dose received, 10 minutes after intravenous administration of the compounds tested, 0.3 ml/mouse of a 0.02% aqueous solution of phenylquinone (phenylbenzoquinone, Sigma, Deisenhofen; solution prepared with addition of 5% of ethanol and stored in a water bath at 45° C.) administered intraperitoneally. The animals were placed individually in observation cages. A push button counter was used to record the number of pain-induced stretching movements (writhing reactions=straightening of the torso with stretching of the rear extremities) for 5-20 minutes after phenylquinone administration. The control was provided by animals which received only physiological common salt solution.
The compounds were tested at the standard dosage of 10 mg/kg. Inhibition of the writhing reactions by a substance was calculated according to the following formula: [formula]
The in-depth investigation into analgesic efficacy was performed using phenylquinone-induced writhing in mice, as described above.

Compound	% inhibition of writhing reactions (Male NMRI mice) [%]	melting point [°C]
COc1cccc(C2(O)CCC(NC(=O)c3nc4cc(C)c(C)cc4[nH]c3=O)CC2CN(C)C)c1 (centres unmarked) [Example 1, 6,7-dimethyl-3-oxo-3,4-dihydroquinoxaline 2-carboxylic acid [3′-(N,N-dimethylaminomethyl)-4′-hydroxy-4′-(m-methoxyphenyl)-cyclohexyl]amide hydrochloride]	72	
COc1cccc(C2(O)CCC(NC(=O)c3nc4cc(Cl)c(Cl)cc4[nH]c3=O)CC2CN(C)C)c1 (centres unmarked) [Example 2, 6,7-dichloro-3-oxo-3,4-dihydroquinoxaline 2-carboxylic acid [3′-(N,N-dimethylaminomethyl)-4′-hydroxy-4′-(m-methoxyphenyl)-cyclohexyl]amide]	55	
COc1cccc(C2(O)CCC(OC(=O)c3nc4cc(C)c(C)cc4[nH]c3=O)CC2CN(C)C)c1 (centres unmarked) [Example 3, 6,7-dimethyl-3-oxo-3,4-dihydroquinoxaline 2-carboxylic acid [3′-(N,N-dimethylaminomethyl)-4′-hydroxy-4′-(m-methoxyphenyl)-cyclohexyl] ester]	90	
COc1cccc(C2(O)CCC(OC(=O)c3nc4cc(Cl)c(Cl)cc4[nH]c3=O)CC2CN(C)C)c1 (centres unmarked) [Example 4, 6,7-dichloro-3-oxo-3,4-dihydroquinoxaline 2-carboxylic acid [3′-(N,N-dimethylaminomethyl)-4′-hydroxy-4′-(m-methoxyphenyl)-cyclohexyl] ester]	84	175 to 177
